Assay results published in ChEMBL document CHEMBL1201862, “PubChem BioAssay data set” (2004).
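Assay format: 96-well plates, 48-hour exposure. Here, GI50 denotes the concentration required for 50% inhibition of growth.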 Active and inactive are the calls of the source. Cut-off read from the data, not from the text of the source: active = GI50 up to about 1.1 µM and inactive = higher.

Experiments:
Test in all cases: inhibition of tumour cell growth, NCI panel, 48 h
OVCAR-3 = test system: OVCAR-3
SK-MEL-28 = test system: SK-MEL-28
PC-3 = test system: PC-3
786-0 = test system: 786-0
HT-29 = test system: HT-29
UACC-257 = test system: UACC-257
UO-31 = test system: UO-31
RXF 393 = test system: RXF 393
A498 = test system: A498
MOLT-4 = test system: MOLT-4
EKVX = test system: EKVX
A549 = test system: A549
NCI/ADR-RES = test system: NCI/ADR-RES
Malme-3M = test system: Malme-3M
HCT-15 = test system: HCT-15
SK-OV-3 = test system: SK-OV-3
KM12 = test system: KM12
U-251 = test system: U-251
SNB-75 = test system: SNB-75
CCRF-CEM = test system: CCRF-CEM

SMILES | GI50 (OVCAR-3) | GI50 (SK-MEL-28) | GI50 (PC-3) | GI50 (786-0) | GI50 (HT-29) | GI50 (UACC-257) | GI50 (UO-31) | GI50 (RXF 393) | GI50 (A498) | GI50 (MOLT-4) | GI50 (EKVX) | GI50 (A549) | GI50 (NCI/ADR-RES) | GI50 (Malme-3M) | GI50 (HCT-15) | GI50 (SK-OV-3) | GI50 (KM12) | GI50 (U-251) | GI50 (SNB-75) | GI50 (CCRF-CEM)
CC(=O)Oc1ccc2[nH]c3c(C)c4cccc-4ccc3c2c1 | 1.62 µM (inactive) | 2.31 µM (inactive) | 1.87 µM (inactive) | 1.85 µM (inactive) | 2.02 µM (inactive) | 1.92 µM (inactive) | 1.76 µM (inactive) | 1.82 µM (inactive) | 2.1 µM (inactive) | 3.13 µM (inactive) | 2.2 µM (inactive) | 2.26 µM (inactive) | 2.28 µM (inactive) | 1.78 µM (inactive) | 2.24 µM | 2.02 µM (inactive) | 2.44 µM (inactive) | – | – | –
NC1CC(=O)c2ccccc21 (stereo unspecified) | > 100 µM (inactive) | > 100 µM (inactive) | > 100 µM (inactive) | > 100 µM (inactive) | > 100 µM (inactive) | > 100 µM (inactive) | > 100 µM (inactive) | > 100 µM (inactive) | > 100 µM (inactive) | > 100 µM (inactive) | > 100 µM (inactive) | > 100 µM (inactive) | > 100 µM (inactive) | – | > 100 µM | > 100 µM (inactive) | > 100 µM (inactive) | > 100 µM (inactive) | > 100 µM (inactive) | > 100 µM (inactive)
O=C(O)CNC(=O)c1ccc(-c2ccccc2)cc1 | > 100 µM (inactive) | > 100 µM (inactive) | > 100 µM (inactive) | > 100 µM (inactive) | – | > 100 µM (inactive) | > 100 µM (inactive) | > 100 µM (inactive) | > 100 µM (inactive) | > 100 µM (inactive) | > 100 µM (inactive) | > 100 µM (inactive) | > 100 µM (inactive) | > 100 µM (inactive) | > 100 µM | > 100 µM (inactive) | > 100 µM (inactive) | > 100 µM (inactive) | – | > 100 µM (inactive)
N#C/C(C(=O)NCc1ccccc1)=C(/N)N1CCCC1 | > 100 µM (inactive) | > 100 µM (inactive) | > 100 µM (inactive) | > 100 µM (inactive) | > 100 µM (inactive) | > 100 µM (inactive) | 46.3 µM (inactive) | > 100 µM (inactive) | 94.8 µM (inactive) | > 100 µM (inactive) | > 100 µM (inactive) | > 100 µM (inactive) | > 100 µM (inactive) | > 100 µM (inactive) | > 100 µM | > 100 µM (inactive) | > 100 µM (inactive) | > 100 µM (inactive) | – | > 100 µM (inactive)
O=C1C2SC34c5c2c2ccccc2n5CCC3CCCN14 (stereo unspecified) | 65 µM (inactive) | > 100 µM (inactive) | 54.8 µM (inactive) | 27.5 µM (inactive) | > 100 µM (inactive) | 15 µM (inactive) | > 100 µM (inactive) | 98.4 µM (inactive) | > 100 µM (inactive) | > 100 µM (inactive) | > 100 µM (inactive) | > 100 µM (inactive) | > 100 µM (inactive) | > 100 µM (inactive) | > 100 µM | > 100 µM (inactive) | > 100 µM (inactive) | 33.9 µM (inactive) | – | –
CCNCCNC(=O)c1ccc(Br)cc1 | > 100 µM (inactive) | > 100 µM (inactive) | > 100 µM (inactive) | > 100 µM (inactive) | > 100 µM (inactive) | – | > 100 µM (inactive) | > 100 µM (inactive) | > 100 µM (inactive) | > 100 µM (inactive) | > 100 µM (inactive) | > 100 µM (inactive) | > 100 µM (inactive) | – | > 100 µM | > 100 µM (inactive) | > 100 µM (inactive) | > 100 µM (inactive) | 63.4 µM (inactive) | > 100 µM (inactive)
CC1CC(C)CC(NC2=NCCO2)C1 (stereo unspecified) | > 100 µM (inactive) | > 100 µM (inactive) | > 100 µM (inactive) | > 100 µM (inactive) | > 100 µM (inactive) | > 100 µM (inactive) | > 100 µM (inactive) | > 100 µM (inactive) | > 100 µM (inactive) | > 100 µM (inactive) | > 100 µM (inactive) | > 100 µM (inactive) | > 100 µM (inactive) | > 100 µM (inactive) | > 100 µM | – | > 100 µM (inactive) | > 100 µM (inactive) | – | > 100 µM (inactive)
CC(C)(Oc1ccc(Cl)cc1)C(=O)N(C(=O)N1CCCCC1)c1ccccc1 | 23.9 µM (inactive) | 15.2 µM (inactive) | 3.4 µM (inactive) | 13.4 µM (inactive) | 8.34 µM (inactive) | – | 10.8 µM (inactive) | 18 µM (inactive) | 17 µM (inactive) | 3.41 µM (inactive) | 2.45 µM (inactive) | – | 14.5 µM (inactive) | 12 µM (inactive) | 6.28 µM | 19.8 µM (inactive) | 5.87 µM (inactive) | 14.2 µM (inactive) | – | 16.7 µM (inactive)
COc1ccc2c(c1)[C@@]13CCN4CC5=CCO[C@H]6CC(=O)N2[C@H]1[C@H]6[C@H]5C[C@H]43 | > 100 µM (inactive) | 80.5 µM (inactive) | > 100 µM (inactive) | > 100 µM (inactive) | 37.2 µM (inactive) | > 100 µM (inactive) | > 100 µM (inactive) | > 100 µM (inactive) | 69.2 µM (inactive) | 18.6 µM (inactive) | 44.4 µM (inactive) | > 100 µM (inactive) | 47.2 µM (inactive) | 90.4 µM (inactive) | > 100 µM | > 100 µM (inactive) | > 100 µM (inactive) | > 100 µM (inactive) | – | 88.5 µM (inactive)
CCc1ccccc1NC(=O)C(C#N)C1=C(Cl)C(=O)c2ccccc2C1=O (stereo unspecified) | 5.69 µM (inactive) | 16.9 µM (inactive) | 14.6 µM (inactive) | 15.5 µM (inactive) | 14.1 µM (inactive) | 16.4 µM (inactive) | 13 µM (inactive) | 20.5 µM (inactive) | – | 8.73 µM (inactive) | 17.1 µM (inactive) | 21.9 µM (inactive) | 16.7 µM (inactive) | 6.07 µM (inactive) | 14.7 µM | 36.6 µM (inactive) | 13.5 µM (inactive) | 15.4 µM (inactive) | 17.3 µM (inactive) | 3.41 µM (inactive)
COC(=O)[C@@H]1[C@H](OC(C)=O)CCC2[C@@]3(C[C@@H](c4ccoc4)O[C@@H]3OC)[C@H](C)CC[C@]21C(=O)OC (stereo partly specified) | > 25 µM (inactive) | – | > 25 µM (inactive) | > 25 µM (inactive) | > 25 µM (inactive) | > 25 µM (inactive) | > 25 µM (inactive) | > 25 µM (inactive) | > 25 µM (inactive) | > 25 µM (inactive) | > 25 µM (inactive) | > 25 µM (inactive) | > 25 µM (inactive) | – | > 25 µM | > 25 µM (inactive) | > 25 µM (inactive) | > 25 µM (inactive) | > 25 µM (inactive) | > 25 µM (inactive)
C=C(c1ccc2[nH]c(NC(=O)OC)nc2c1)c1cccs1 | 0.0379 µM (active) | 3.47 µM (inactive) | 0.0914 µM (active) | 0.155 µM (active) | 0.0568 µM (active) | 0.556 µM (active) | 0.916 µM (active) | > 100 µM (inactive) | 0.425 µM (active) | – | 9.46 µM (inactive) | 0.16 µM (active) | 0.0488 µM (active) | 0.0855 µM (active) | < 0.0349 µM | 0.135 µM (active) | – | 0.0791 µM (active) | – | –
CCO[C@H]1C[C@@H](c2ccccc2)[C@]2(C)C[C@H](C(=O)OC)ON2O1 | > 100 µM (inactive) | > 100 µM (inactive) | > 100 µM (inactive) | > 100 µM (inactive) | > 100 µM (inactive) | > 100 µM (inactive) | > 100 µM (inactive) | > 100 µM (inactive) | > 100 µM (inactive) | > 100 µM (inactive) | > 100 µM (inactive) | > 100 µM (inactive) | > 100 µM (inactive) | > 100 µM (inactive) | > 100 µM | – | > 100 µM (inactive) | > 100 µM (inactive) | – | > 100 µM (inactive)
COC(=O)[C@@]12CCCC(=O)[C@@H]1[C@H]1CCC[C@H]12 | > 100 µM (inactive) | > 100 µM (inactive) | > 100 µM (inactive) | > 100 µM (inactive) | > 100 µM (inactive) | > 100 µM (inactive) | > 100 µM (inactive) | > 100 µM (inactive) | – | > 100 µM (inactive) | > 100 µM (inactive) | > 100 µM (inactive) | > 100 µM (inactive) | > 100 µM (inactive) | > 100 µM | > 100 µM (inactive) | > 100 µM (inactive) | > 100 µM (inactive) | > 100 µM (inactive) | > 100 µM (inactive)
O=c1c(SSc2coc3cc(F)ccc3c2=O)coc2cc(F)ccc12 | 21.6 µM (inactive) | 5.58 µM (inactive) | 7.82 µM (inactive) | 10 µM (inactive) | 15.3 µM (inactive) | 21.8 µM (inactive) | 11.4 µM (inactive) | 32.2 µM (inactive) | – | 7.31 µM (inactive) | 21.1 µM (inactive) | 7.29 µM (inactive) | 17.3 µM (inactive) | 29.6 µM (inactive) | 13.8 µM | – | 8.95 µM (inactive) | 21.3 µM (inactive) | 11 µM (inactive) | 3.58 µM (inactive)
